How the values were obtained:
rats [1] = experiment: Relation of perfluorocarbon hemodynamic effects to NO: L-NAME and potassium nitrite treated rats, mean arterial pressure; type: in vivo, rat
nitrosothiols formation = experiment: Effect of α-dihydrolipoic acid on nitrosothiol formation and vasorelaxation in the presence of perfluorocarbons; conditions: FIG. 8, in vitro and in vivo
Excerpt: If delivered at small concentrations, i.e., less than 1% v/v, and in conjunction with low molecular weight nucleophiles, such as thiols or mixtures of thiols, perfluorocarbons act as a powerful vasodilator rather than as a vasoconstrictor. NO^+ originated from N2O3 in the perfluorocarbon micelles can be transferred to various low molecular weight nucleophiles, exemplified as RSH, by two possible pathways, as shown in FIG. 7. Direct attack on RSH is possible at the surface of perfluorocarbon micelles or inside the micelles, if the RSH were hydrophobic enough to enter it, as shown in pathway I of FIG. 7. Additionally, NO can reach various RSH via a transnitrosation reaction by using a lipophilic low molecular weight “shuttle”, as shown in FIG. 7. One example of such an NO shuttle is α-lipoic acid (α-LA), which is normally present in the circulation at low (micromolar) concentrations (Keipert, 2001). α-lipoic acid has a highly hydrophobic tail (FIG. 7A), which can readily penetrate the perfluorocarbon micelle where it is nitrosated. Since both SH groups of α-dihydro-lipoic acid are located next to each other, upon nitrosation they would almost immediately form an S-S adduct and release NO^+. […]

rats [2] = experiment: Plasma low molecular weight S-nitrosothiols and mean arterial pressure after Perftoran and thiols in rats; type: in vivo, rat; conditions: cysteine 1 mg/kg intravenously, without perfluorocarbon
Method: Plasma low molecular weight-S-nitrosothiols were determined using CuCl2 to displace NO from thiol residues followed by electrochemical detection of released NO (Rafikova et al., 2002). The concentration of CuCl2, 40 μM, was selected to decompose predominantly low molecular weight S-nitrosothiols.

With O=N[O-].[K+] [potassium nitrite] the “effect on mean arterial pressure after L-NAME” value (rats [1]; 1 mg/kg potassium nitrite about 90 minutes after L-NAME) was “partially restored mean arterial pressure” and the “mean arterial pressure above the baseline” value (rats [1]; nitrite-treated (L-NAME) rats without Perftoran, same time) was “about 24 mmHg”.

In the case of O=C(O)CCCC[C@@H](S)CCS [α-dihydrolipoic acid], the “effect on formation of nitrosothiols and vasorelaxation” value (nitrosothiols formation) is reported as “simulating effect”.

For N[C@@H](CS)C(=O)O [cysteine, L-cysteine], the “effect on blood pressure” value (rats [2]) was “virtually no effect” and the “effect on plasma low molecular weight S-nitrosothiols” value (rats [2]) was “virtually no effect”.

Source: patent US7767232B2, “Control of nitric oxide bioactivity by perfluorocarbons” (New York University, priority 2002, dated 2010)
